Results reported in US20110212181A1, “COMPOSITIONS AND METHODS FOR TREATING CHRONIC RESPIRATORY INFLAMMATION” (The University of Hong Kong, priority 2010, published 2011).
Values belong to the molecule of their own block, whether it stands above or below them.

What was measured:
NE [1] = target: T1, NE (Homo sapiens, UniProt P08246); experiment: Surface plasmon resonance competition assay, NE binding to HS-SA sensor chip; conditions: for competitive effectiveness (inhibition of NE binding to immobilized HS): NE at 1,000 nM, competing glycosaminoglycans at 1,000 ng/ml; for competition for NE binding to immobilized HS (in words): solution-surface competition, SPR
T1 sequence (P08246 30-267): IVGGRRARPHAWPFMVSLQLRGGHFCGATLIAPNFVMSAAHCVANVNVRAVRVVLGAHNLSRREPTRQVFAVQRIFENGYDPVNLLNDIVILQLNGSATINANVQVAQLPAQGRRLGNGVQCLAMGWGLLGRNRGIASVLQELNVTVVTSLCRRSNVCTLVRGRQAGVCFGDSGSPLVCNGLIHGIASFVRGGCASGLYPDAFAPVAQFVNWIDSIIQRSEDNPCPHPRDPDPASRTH
Method: (§1) Interactions of HS and NE were analyzed with a BIAcore 2,000 optical biosensor (BIAcore, Uppsala, Sweden). HS chains recovered from rhSyn-1 after LiOH treatment were biotinylated at the reducing ends (68 nmol biotin/mg HS, as determined by Quant*Tag Biotin kit; Vector Laboratories, Peterborough, UK). By a 2-minute injection of biotinylated HS, […] in 10 mM Hepes (pH 7.4), 0.15 M NaCl, and 0.005% P20 surfactant (HBS-P; BIAcore), at a flow rate of […] onto the streptavidin (SA) sensor chip (BIAcore), increase in 250 resonance units indicated successful immobilization of HS onto the sensor chip. Increasing concentrations of NE in HBS-P buffer were perfused (at […] for 2 min) in turn over the HS-SA sensor chip, each followed by perfusion of buffer to facilitate dissociation. Responses were monitored at 25° C. The sensor chip was regenerated with perfusion of 2 M NaCl/HBS-P. Resonance data obtained from sensorgrams were evaluated with BIAevaluation 3.0 software (BIAcore) to yield rate constants for association (ka), dissociation (kd) and the equilibrium dissociation constant (Kd). For competition assays, NE (2,000 nM) premixed at 1:1 (vol/vol) with defined concentrations (250-2,000 ng/ml) of the competing glycosaminglycan-chondroitin 4-sulfate (C4S), heparin, and chemically modified heparins (N-desulfated re-N-acetylated, completely desulfated re-N-acetylated, or 2-O and 6-O desulfated and N-sulfated; Seikagaku) in HBS-P buffer for 30 minutes at 4° C. was injected onto the HS-SA sensor chip at […]. Dissociation and regeneration procedures were as described above. […] All experiments were preformed in duplicate. Resonance data obtained from sensorgrams were plotted as percent inhibition relative to that obtained without competing glycosaminoglycan. The concentration of competing glycosaminoglycan that interfered with NE binding to the HS-SA sensor by 50% was determined using the statistical program, PRISM (GraphPad, Inc., San Diego, Calif.).

rhSyn-1 = target: T2, rhSyn-1 (Homo sapiens, UniProt P18827); experiment: Western ligand blot of rhSyn-1; type: binding
T2 construct: made in house
T2 sequence (P18827 23-310): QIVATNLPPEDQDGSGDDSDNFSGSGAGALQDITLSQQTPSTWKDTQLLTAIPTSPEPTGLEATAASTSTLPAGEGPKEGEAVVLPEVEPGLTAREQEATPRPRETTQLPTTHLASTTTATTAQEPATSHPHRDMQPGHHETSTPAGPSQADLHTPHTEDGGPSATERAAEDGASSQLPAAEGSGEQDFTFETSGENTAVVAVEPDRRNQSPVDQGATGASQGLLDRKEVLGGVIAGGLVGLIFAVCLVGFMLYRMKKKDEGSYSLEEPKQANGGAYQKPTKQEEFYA
Method: Sputum sol was treated (30 min, 24° C.) with the mucolytic reducing agent, DTT (5 mM; Sigma) to deactivate NE, dialyzed against PBS (16 h, 4° C.) to remove DTT, and then incubated (16 h, 37° C.) with HS^ase I and II (0.01 unit each; Seikagaku, Tokyo, Japan) or chondroitinase ABC (0.01 unit; Seikagaku). Control treatments were performed in the relevant incubation buffer (product sheet; Seikagaku), but without the indicated enzymes. The digestion products were subjected to Western blot and Western ligand blot analyses. Recombinant Syn-1 was similarly treated, deglycanated, and analyzed, but without prior treatment with DTT.
Sputum sol samples were treated with DTT, as described above, and then subjected to SDS-PAGE in a 10% gel under nonreducing conditions. The gel electrophoretogram was electroblotted onto polyvinylidene fluoride membrane and nonspecific binding was blocked with 5% nonfat dry milk (1 h, 24° C.) before the blot was probed for the epitope of interest. […] Secondary antibodies were conjugated with horseradish peroxidase. The membranes were washed with PBS-Tween® 20 between incubations. Visualization was enhanced with an enhanced chemiluminescence kit (Amersham Biosciences, Piscataway, N.J.). […]

NE [2] = target: T1, NE; experiment: Surface plasmon resonance analysis of NE-HS binding
Method: as §1

NE [3] = target: T1, NE; experiment: Inhibition of NE activity in the presence of rhSyn-1 or sputum sol; type: biochemical; conditions: incubations with rhSyn-1 and with sputum samples, with and without prior HS^ase I and II treatment
Method: Unopposed NE activity in sputum sol was assessed for equivalent molar concentration by active-site titration. The NE activity of sputum sol was estimated using MeO-Suc-Ala-Ala-Pro-Val-p-nitroanilide as substrate at 2 mM in 0.2 M Tris-HCl, 0.5 M NaCl (pH 8.0); the hydrolytic release of p-nitroaniline was followed at 410 nm, 37° C. (molar extinction coefficient at 410 nm=8,800). An equivalent activity of purified human NE (Sigma, St. Louis, Mo.) was titrated with increasing concentrations of the irreversible inhibitor, MeO-Suc-Ala-Ala-Pro-Val-CMK (Calbiochem, La Jolla, Calif.), and the residual activities were measured.
The inhibitor effects were compared with those of parallel procedure performed on DTT-pretreated sputum sol samples of the 12 patient recruits.

[4] = NE over immobilized HS, 1:1 Langmuir model

competitive effectiveness (inhibition of NE binding to immobilized HS) (NE [1]): approximately 75%
Molecule: N-desulfated and re-N-acetylated heparin

competition for NE binding to immobilized HS (in words) (NE [1]): failed to outcompete
competition for NE binding to immobilized HS (in words) (NE [1]; listed as CS): not
Molecule: chondroitin 4-sulfate [C4S]

Kd (NE [2]; NE (50-1,500 nM) perfused over immobilized HS from rhSyn-1, 1:1 Langmuir model, 25° C., read-out: equilibrium dissociation constant (Kd)): 14.2 nM
ka, rate constant for association (NE [2]; [4]): 3.31 ± 0.14 × 10^4 M^−1s^−1
kd, rate constant for dissociation (NE [2]; [4]): 4.69 ± 0.21 × 10^−4 s^−1
Molecule: heparan sulfate [HS]

competitive effectiveness (inhibition of NE binding to immobilized HS) (NE [1]): 95%
competition for NE binding to immobilized HS (in words) (NE [1]): Effective competition
Molecule: heparin

Further lines, the molecule ahead of its results:

Molecule: 2-0 and 6-0 desulfated and N-sulfated heparin
competitive effectiveness (inhibition of NE binding to immobilized HS) (NE [1]): approximately 60%

Molecule: Completely desulfated and re-N-acetylated heparin
competition for NE binding to immobilized HS (in words) (NE [1]): failed to outcompete

Molecule: alpha-1-antitrypsin [α1-AT]
binding to glycanated rhSyn-1 (rhSyn-1): not
binding to deglycanated rhSyn-1 core protein (rhSyn-1; after heparitinase and chondroitinase treatments): binding

B1: eglin C (peptide, UniProt P01051 1-70, looked up)
Eglin C: TEFGSELKSFPEVVGKTVDQAREYFTLHYPQYDVYFLPEGSPVTLDLRYNRVRVFYNPGTNVVNHVPHVG
inhibition of NE activity (in words) (NE [3]): complete inhibition
